Assay results reported in ChEMBL document CHEMBL4665802, “Design, Synthesis, and Structure-Activity Relationships of Indoline-Based Kelch-like ECH-Associated Protein 1-Nuclear Factor (Erythroid-Derived 2)-Like 2 (Keap1-Nrf2) Protein-Protein Interaction Inhibitors” (J Med Chem, 2020).
Calls of active or inactive are those of the source. No cut-off for these calls is given here.

Columns and labels:
[1] = Metabolic stability in human liver microsome assessed as parent compound remaining at 1 uM preincubated for 5 mins followed by NADPH addition and measured after 45 mins by LC-MS/MS analysis; assay type: ADME; details: liver microsomes, time 50 min, read-out: Stabilty
[2] = Intrinsic clearance in human liver microsome at 1 uM preincubated for 5 mins followed by NADPH addition and measured after 45 mins by LC-MS/MS analysis; assay type: ADME; details: microsomes, 0.75 h
[3] = biological target: T1, CYP1A2 (Homo sapiens, UniProt P05177); experiment: Inhibition of CYP1A2 (unknown origin) at 10 uM using 7-ethoxycoumarin as substrate preincubated for 5 mins followed by NADPH addition and measured after 20 mins by LC-MS/MS analysis relative to control; assay type: ADME; details: probe 7-ethoxycoumarin
T1 sequence (P05177 whole entry): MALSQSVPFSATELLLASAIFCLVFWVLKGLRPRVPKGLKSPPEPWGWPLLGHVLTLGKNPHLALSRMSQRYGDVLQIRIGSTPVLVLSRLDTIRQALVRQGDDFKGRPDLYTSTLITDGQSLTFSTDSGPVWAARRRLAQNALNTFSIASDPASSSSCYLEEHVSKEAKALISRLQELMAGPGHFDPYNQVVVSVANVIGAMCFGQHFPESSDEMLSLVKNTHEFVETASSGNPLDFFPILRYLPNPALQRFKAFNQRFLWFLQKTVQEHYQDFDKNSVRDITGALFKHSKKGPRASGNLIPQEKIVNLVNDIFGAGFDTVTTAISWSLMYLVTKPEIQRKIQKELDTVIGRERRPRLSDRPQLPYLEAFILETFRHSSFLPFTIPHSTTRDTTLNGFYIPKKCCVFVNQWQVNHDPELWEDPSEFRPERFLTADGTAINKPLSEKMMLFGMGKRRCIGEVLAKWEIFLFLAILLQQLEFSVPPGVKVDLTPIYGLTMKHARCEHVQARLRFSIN

[4] = biological target: CYP2C19 (Homo sapiens, UniProt P33261); experiment: Inhibition of CYP2C19 (unknown origin) at 10 uM using omeprazole as substrate preincubated for 5 mins followed by NADPH addition and measured after 20 mins by LC-MS/MS analysis relative to control; assay type: ADME; details: probe omeprazole
[5] = biological target: CYP3A4 (Homo sapiens, UniProt P08684); experiment: Inhibition of CYP3A4 (unknown origin) at 10 uM using […] as substrate preincubated for 5 mins followed by NADPH addition and measured after 20 mins by LC-MS/MS analysis relative to control; assay type: ADME
[6] = Cmax in rat at 5 mg/kg, iv by LC-MS/MS analysis; assay type: ADME, organism-based; set-up: route intravenous, dose 5 mg/kg; details: in vivo
[7] = AUC (0 to t) in rat at 5 mg/kg, iv by LC-MS/MS analysis; assay type: ADME, organism-based; set-up: dose 5 mg/kg; details: in vivo
[8] = tested on: H9c2; experiment: Upregulation of Nrf2 mRNA expression in rat H9c2 cells incubated for 12 hrs by Trizol reagent based qRT-PCR analysis; assay type: functional, cell-based; details: dose microM 0.1-10, time 12.0 hrs
[9] = biological target: T2, KEAP1/NRF2 (Rattus norvegicus) (UniProt O54968+P57790); experiment: Inhibition of Keap1-Nrf2 protein-protein interaction in rat H9c2 cells assessed as upregulation of HO1 mRNA expression incubated for 12 hrs by Trizol reagent based qRT-PCR analysis; assay type: cell-based; details: dose microM 0.1-10, time 12.0 hrs
[10] = biological target: T2, KEAP1/NRF2 (Rattus norvegicus); experiment: Inhibition of Keap1-Nrf2 protein-protein interaction in rat H9c2 cells assessed as upregulation of GCLM mRNA expression incubated for 12 hrs by Trizol reagent based qRT-PCR analysis; assay type: cell-based; details: dose microM 0.1-10, time 12.0 hrs
[11] = tested on: H9c2; experiment: Cytotoxicity against rat H9c2 cells assessed as reduction in cell viability up to 100 uM incubated for 24 hrs by MTT assay; assay type: cell-based; details: h9c2, 24 h
[12] = tested on: H9c2; experiment: Antioxidant activity against LPS-induced injury in rat H9c2 cells assessed as decrease in ROS level at 10 uM pretreated for 12 hrs followed by LPS addition measured after 12 hrs by H2DCFDA probe based flow cytometry; assay type: functional, cell-based; details: time 24.0 hrs
[13] = tested on: Mus musculus; experiment: Cardioprotective activity in LPS-stimulated sepsis in C57BL/6 mouse assessed as reduction in heart tissue damage at 10 mg/kg, ip qd administered for 3 days prior to LPS stimulation and measured after 12 hrs by hematoxylin and eosin staining based microscopy; assay type: functional, organism-based; details: time 3.5 day
[14] = tested on: Mus musculus; experiment: Cardioprotective activity in LPS-stimulated sepsis in C57BL/6 mouse assessed as reduction in histological score at 10 mg/kg, ip qd administered for 3 days prior to LPS stimulation and measured after 12 hrs by hematoxylin and eosin staining based microscopy; assay type: functional, organism-based; details: time 3.5 day
[15] = tested on: Mus musculus; experiment: Upregulation of Nrf2 protein levels in LPS-stimulated C57BL/6 mouse model at 10 to 40 mg/kg, ip qd administered for 3 days prior to LPS stimulation and measured after 12 hrs by Western blot analysis; assay type: functional, organism-based; details: dose mg/kg 10-40, time 3.5 day
[16] = tested on: Mus musculus; experiment: Upregulation of NQO1 expression in LPS-stimulated C57BL/6 mouse model of sepsis at 10 to 40 mg/kg, ip qd administered for 3 days prior to LPS stimulation and measured after 12 hrs by Western blot analysis; assay type: functional, organism-based; details: dose mg/kg 10-40, time 3.5 day
[17] = biological target: T2, KEAP1/NRF2 (Rattus norvegicus); experiment: Inhibition of Keap1-Nrf2 protein-protein interaction in rat H9c2 cells assessed as upregulation of HO1 mRNA expression at 10 uM incubated for 4 to 24 hrs by Trizol reagent based qRT-PCR analysis; assay type: cell-based; details: time hrs 4-24
[18] = biological target: T2, KEAP1/NRF2 (Rattus norvegicus); experiment: Inhibition of Keap1-Nrf2 protein-protein interaction in rat H9c2 cells assessed as upregulation of NQO1 mRNA expression at 10 uM incubated for 4 to 24 hrs by Trizol reagent based qRT-PCR analysis; assay type: cell-based; details: time hrs 4-24
[19] = biological target: T2, KEAP1/NRF2 (Rattus norvegicus); experiment: Inhibition of Keap1-Nrf2 protein-protein interaction in rat H9c2 cells assessed as upregulation of HO1 expression at 10 uM incubated up to 24 hrs by Western blot; assay type: cell-based; details: time hrs <=24

Chain of CYP3A4 (P08684 whole entry): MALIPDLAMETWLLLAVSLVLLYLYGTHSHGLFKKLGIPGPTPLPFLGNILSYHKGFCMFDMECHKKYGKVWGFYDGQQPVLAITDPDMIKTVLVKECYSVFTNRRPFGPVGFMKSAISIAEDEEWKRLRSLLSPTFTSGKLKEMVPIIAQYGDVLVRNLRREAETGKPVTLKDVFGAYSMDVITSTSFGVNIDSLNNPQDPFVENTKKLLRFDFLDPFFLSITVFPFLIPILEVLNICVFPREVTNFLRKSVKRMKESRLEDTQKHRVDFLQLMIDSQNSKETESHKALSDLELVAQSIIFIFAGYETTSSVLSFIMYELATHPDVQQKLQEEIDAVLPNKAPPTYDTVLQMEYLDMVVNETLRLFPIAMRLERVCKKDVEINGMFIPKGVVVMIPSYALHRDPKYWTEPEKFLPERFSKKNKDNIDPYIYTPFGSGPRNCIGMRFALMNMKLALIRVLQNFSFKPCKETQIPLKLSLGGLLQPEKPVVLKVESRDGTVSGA
Chain of CYP2C19 (P33261 whole entry): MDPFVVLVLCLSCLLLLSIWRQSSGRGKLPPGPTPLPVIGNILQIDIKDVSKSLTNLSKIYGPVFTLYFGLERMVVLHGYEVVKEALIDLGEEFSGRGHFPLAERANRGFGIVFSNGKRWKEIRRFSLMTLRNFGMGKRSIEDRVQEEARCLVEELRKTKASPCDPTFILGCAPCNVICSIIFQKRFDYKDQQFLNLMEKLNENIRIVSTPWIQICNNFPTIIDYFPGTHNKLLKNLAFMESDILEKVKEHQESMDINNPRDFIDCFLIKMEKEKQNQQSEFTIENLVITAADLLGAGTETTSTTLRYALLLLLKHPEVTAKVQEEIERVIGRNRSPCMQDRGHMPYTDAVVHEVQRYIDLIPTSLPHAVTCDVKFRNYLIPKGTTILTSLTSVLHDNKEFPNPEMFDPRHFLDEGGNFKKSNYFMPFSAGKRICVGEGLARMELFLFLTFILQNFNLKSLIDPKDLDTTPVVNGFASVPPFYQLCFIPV

COc1ccc(S(=O)(=O)NC(=O)CN(c2cccc3c2CCN3C(C(=O)NS(=O)(=O)c2ccc(C)cc2OC)c2cccc(OC)c2)S(=O)(=O)c2ccc(OC)cc2)cc1 (centres undefined)
remaining at 0.75 h, 1 µM [1]: 74.4%
CLH [2]: 11.4 mL/min/kg
inhibition at 20 min, 10 µM [3]: 8.75%
inhibition at 20 min, 10 µM [4]: 19.8%
inhibition at 20 min, 10 µM [5]: 46.9%
Cmax [6]: 78.2 µg/mL
AUC(0-t) [7]: 47000 ng·h/mL
Activity [8]: Dose-dependent effect
inhibition [9]: Dose-dependent effect
inhibition [10]: Dose-dependent effect
Activity [11]: Non-Toxic
Activity [12]: Active
Activity [13]: Active
Activity [14]: Active
Activity [15]: Active
Activity [16]: Active
inhibition [17]: Active
inhibition [18]: Active
inhibition [19]: Active
